Results on one compound are retold here after US20070009593A1, “Methods of treating cancer” (Indianan University Advanced Research, priority 2002, published 2007).

Each structure is given as a SMILES string.

One series relates to breast cancer lines. Kind of series: Annexin V/propidium iodide flow cytometry. The format is cell-based, human. Particulars: at the ritonavir IC50 and IC80. (Flow cytometry measures light scatter and fluorescence of single cells or particles in a stream.)
The next series concerns A549. The series is described as follows: MTT assay, NSCLC cell line. As to conditions: Homo sapiens. The format is cell-based.
For series [1] the following is noted: patients, Gatti et al., cited from earlier work.
The subject of another series is H522. The series is described as follows: MTT assay, NSCLC cell line. The format is cell-based. As to conditions: Homo sapiens. A general note: Tetrazolium assays rely on reduction of a dye to a coloured formazan, in cell work by metabolically active cells.
For series [2], the system named is 436 with expression of IκB α super-repressor of NF-κB. Kind of series: clonogenic assay (LD50), ritonavir sensitivity. The format is cell-based, human. Particulars: 436 expressing IκB α super-repressor of NF-κB. An excerpt: This finding is consistent with the implication of signaling pathways in the resistance of breast cancer cell lines to chemotherapy (Patel et al., Oncogene 19:4159-4169).
(§1) We note that the IC50 is derived from MTT assays, while the LD50 is derived from clonogenic assays.

Another series can be described thus: in vivo. As to conditions: mouse, ip.
A further series has as its system EGF receptor. The series is described as follows: EGF receptor expression in Caco 2 cells, Western blot. Particulars: 20 μM, 24 hours, confluent Caco 2. It counts as cell-based. The method, then: The medium was not changed. After 24 hours, the cells were harvested by Triton X-100 lysis, and Western blot analysis was performed on the supernatant, which contains solubilized EGF receptor.
In general terms: In western blotting, separated proteins are transferred to a membrane and probed.

In another series the test system is MCF7. The series is described as follows: clonogenic assay (LD50), ritonavir sensitivity. It counts as cell-based, human.
From the text: (§2) MCF7 and MDA-MB-435 (435) had relatively low m-calpain levels, whereas MDA-MB-231 (231), MDA-MB-436 (436) and Caco 2 had relatively high m-calpain levels.
as §1

Another series concerns MDA-MB-435 (435). Kind of series: clonogenic assay (LD50), ritonavir sensitivity. The format is cell-based, human. Particulars: 435 cells.
From the text: as §2, §1

The next series concerns MDA-MB-436 (436). The series is described as follows: clonogenic assay (LD50), ritonavir sensitivity. The format is cell-based, human. Particulars: 436 cells.
From the text: as §2, §1

The test system of another series is MDA-MB-231 (231). Kind of series: clonogenic assay (LD50), ritonavir sensitivity. It counts as cell-based, human. As to conditions: 231 cells.
From the text: as §2, §1

Series [3] concerns MDA-MB-435 human breast cancer xenografts. The series is described as follows: nude mouse mammary fat pad xenograft model. It counts as in vivo, nude mice. As to conditions: 19 days. How it is done:
An inoculum of 5×10^5 MDA-MB-435 cells in 100 μl was injected into the mammary fat pad of each female animal. […] The tumor growth rate was reduced by 16% in the mice treated at 20 mg/kg, compared to the mice treated with vehicle.

In series [4] the test system is Caco 2 C9 control (pRC/CMV vector). The series is described as follows: MTT assay, 96 well plate, 48 h. The format is cell-based. Particulars: Caco-2, 48 h, read-out: Ritonavir IC50.
In series [5] the target is T1, chymotryptic active site of the proteasome (ZGGL-AMC cleavage) (Homo sapiens, UniProt P28074).
T1 construct: Fluorometric assay of ZGGL-AMC cleavage by Caco 2 cells; endogenous in cells; host or cells: Caco 2
The series is described as follows: fluorometric assay of ZGGL-AMC cleavage by Caco 2 cells. Particulars: for ZGGL-AMC cleavage: Caco 2 cells (DMSO control 0.287). It counts as cell-based.

Usually IC80 stands for the concentration needed for an effect of 80%. A high value points to a need for much substance. Broadly, the IC50 is the concentration at which inhibition is half-maximal. One may read the half-life as the time in which the quantity being followed falls by half. Turning to `CC(C)c1nc(CN(C)C(=O)N[C@H](C(=O)N[C@@H](Cc2ccccc2)C[C@H](O)[C@H](Cc2ccccc2)NC(=O)OCc2cncs2)C(C)C)cs1` [Ritonavir, ritonavir], in the series with breast cancer lines, the apoptosis entry was “increased apoptosis”. Also, the IC80 was 45 µM with A549 (A549, MTT assay, single agent) and 90 µM with H522 (NCI-H522, single agent). Besides, the results for the IC50 (in the series with A549 (MTT assay); in the series with H522 (NCI-H522); in series [4]) were 35 µM, 42.5 µM and 30 µM, respectively. For the same compound, the “peak plasma ritonavir concentrations” value in [1] (AIDS 13:2083-2089) is 18.6 to 46 µM. Moreover, the trough concentrations in series [1] (AIDS 13:2083-2089) is 10.4 to 17.5 µM. The Cmax in series [1] (read-out: upper boundary of ritonavir Cmax plasma concentrations) was roughly 45 µM. In addition, the LD50 was found to be 40 µM in [2]; 25 µM in the series with MCF7; 16 µM in the series on MDA-MB-435 (435); 55 µM in the series on MDA-MB-436 (436); 60 μm with MDA-MB-231 (231). Besides, the half-life in the series “in vivo” was less than 3 h. In addition, in the series with EGF receptor, the “EGF receptor down regulated” value came to 20%. The “tumor growth rate reduced, compared to vehicle” value in series [3] (10 mg/kg daily gavage, one outlier tumor removed) is 49%; in [3] (20 mg/kg daily gavage, all tumors), 16%; in series [3] (20 mg/kg daily gavage, outlier tumor removed) it was 55%. Moreover, the ZGGL-AMC cleavage in [5] (6 μM) is given as 0.432 pmol·s^1− 10^6 cells; in [5] (12 μM), 0.412 pmol·s^1− 10^6 cells; in series [5] (24 μM), 0.337 pmol·s^1− 10^6 cells; in [5] (60 μM) it was 0.409 pmol·s^1− 10^6 cells. Further, the “effect on ZGGL-AMC cleavage” value in series [5] (Caco 2 cells) is “does not block cleavage”.
